The record followed here is patent publication US9371336B2, “Compounds for treating spinal muscular atrophy” (PTC Therapeutics Inc., priority 2012, dated 2016).

Assay [1] relates to Smn protein. In words: Smn protein in tissues of neonatal Δ7 SMA mice (HTRF). Format: in vivo, mouse. The note with it: neonatal SMA Δ7 homozygous knockout mice. As to the method:
(§1) The Smn HTRF protein assay is used to quantify the level of Smn protein in mouse tissues.
(§2) The tissue samples in Safe-Lock tubes are weighed and the volume of RIPA buffer containing the protease inhibitor cocktail is added based on the weight to volume ratios for each type of tissue: Brain (50 mg/mL), Muscle (50 mg/mL) and Spinal Cord (25 mg/mL).
(§3) Tissues are homogenized using the TissueLyzer by bead milling. 5 mm stainless steel beads are added to the sample and shaken vigorously for 5 minutes at 30 Hz in the TissueLyzer. The samples are then centrifuged for 20 minutes at 14,000×g in a microcentrifuge and the homogenates transferred to the PCR plate. The homogenates are diluted in RIPA buffer to approximately 1 mg/mL for HTRF and approximately 0.5 mg/mL for total protein measurement using the BCA protein assay. For the SMN HTRF assay, 35 μL of the tissue homogenate is transferred to a 384-well plate containing 5 μL of the antibody solution (1:100 dilution of each of the anti-SMNd2 and anti-SMN Kryptate in reconstitution buffer). […] Fluorescence for each well of the plate at 665 nm and 620 nm is measured on an EnVision multilabel plate reader (Perkin-Elmer). The total protein in the tissue homogenate is measured using the BCA assay according to the manufacturer's protocol.
(§4) The normalized fluorescence signal is calculated for each sample, Blank and vehicle control well by dividing the signal at 665 nm by the signal at 620 nm. Normalizing the signal accounts for possible fluorescence quenching due to the matrix effect of the tissue homogenate. The ΔF value (a measurement of Smn protein abundance as a percent value) for each tissue sample well is calculated by subtracting the normalized average fluorescence for the Blank control wells from the normalized fluorescence for each tissue sample well, then dividing this difference by the normalized average fluorescence for the Blank control wells and multiplying the resulting value by 100. The ΔF value for each tissue sample well is divided by the total protein quantity (determined using the BCA assay) for that tissue sample. […]

The subject of assay [2] is Smn protein. Nature of the assay: Smn protein assay in tissues of adult C/C-allele SMA mice (HTRF). The format is in vivo, mouse. The note with it: 50 mg/kg BID for 10 days, relative to vehicle group, p<0.001 by ANOVA, n=10 (FIG. 8). On the procedure: as §1, §2, §3, §4
Assay [3] concerns gems (Smn-dependent nuclear speckles) in SMA patient fibroblast cells. Nature of the assay: Gems count (Smn-dependent nuclear speckle count) assay. The format is cell-based, human. To be noted: SMA Type 1 patient cells, 48 hour, fluorescence microscopy (FIG. 7). The text has this: The level of Smn protein directly correlates with the amount of nuclear foci, also known as gems, produced upon staining the cell with a fluorescently labeled anti-Smn antibody (Liu and Dreyfuss, EMBO J., 1996, 15:3555). Gems are multi-protein complexes whose formation is nucleated by the Smn protein and the gems count assay is used to evaluate the level of Smn protein in the cell. As described herein, the gems count assay is used to quantify the level of Smn protein in SMA patient fibroblast cells treated with a test compound.
Cells are thawed and incubated in DMEM-10% FBS for 72 hours, then trypsinized, counted and resuspended to 100,000 cells/mL in DMEM-10% FBS. The cell suspension (2 mL) is plated in a 6-well cell culture plate with a sterile cover slip and incubated for 3 to 5 hours. Test compounds are serially diluted 3.16-fold in 100% DMSO to generate a 7-point dilution curve. […]
Cell culture medium is aspirated from the wells containing cover slips and gently washed three times with cold PBS. […] The number of gems is counted per ≧150 nuclei and % activation is calculated using DMSO and 10 nM bortezomib as controls. For each test compound, the cells are examined at all wavelengths to identify test compounds with inherent fluorescence.

Consider `Cc1ccc2nc(-c3cc4ccc(N5CCN(C)CC5)nc4oc3=O)cn2c1` [Cpd 27, 3-(6-methylimidazo[1,2-a]pyridin-2-yl)-7-(4-methylpiperazin-1-yl)-2H-pyrano[2,3-b]pyridin-2-one], for which the “total protein normalized Smn level, brain” value in assay [1] (QD IP for 7 days (PND 3 to PND 9) (FIG. 9a)) is “dose dependently increased”. Moreover, the “total protein normalized Smn level, spinal cord” value in assay [1] (QD IP for 7 days (PND 3 to PND 9) (FIG. 9b)) was “dose dependently increased”. Also, in assay [1] (QD IP for 7 days (PND 3 to PND 9) (FIG. 9c)), the “total protein normalized Smn level, muscle” value was “dose dependently increased”.
Regarding `CN1CCN(c2ccc3cc(-c4nc5c(Cl)cccc5s4)c(=O)oc3n2)CC1` [Cpd 5, 3-(4-chloro-1,3-benzothiazol-2-yl)-7-(4-methylpiperazin-1-yl)-2H-pyrano[2,3-b]pyridin-2-one], in assay [2], the “total protein-normalized Smn level, brain” value is on record as “increased”; the “total protein-normalized Smn level, muscle” value is on record as “increased”; the “total protein-normalized Smn level, spinal cord” value is “increased”. Further, the “gems (nuclear speckle count) relative to DMSO” value in assay [3] is given as “progressively more gems”.
